Assay results: patent US7635703B2, “Imidazole substituted pyrazole kinase inhibitors” (Janssen Pharmaceutica N.V., priority 2006, dated 2009)

Legend:
[1] = target: T1, human CDK1 catalytic subunit and cyclin B (Homo sapiens, UniProt P06493); assay: CDK1 screening assay (33P-ATP FlashPlate); assay type: biochemical; settings: 10 μM ATP, 1 hr at 30° C.
T1 construct: purchased New England Biolabs, Beverly, Mass; 6020; host or cells: insect cells
Protocol: (§1) A kinase reaction mixture was prepared containing 50 mM Tris-HCl pH=8, 10 mM MgCl2, 0.1 mM […], 1 mM DTT, 10 μM ATP, 0.025 μM biotinylated histone-H1 peptide substrate and 0.2 μCuries per well ^33P-γ-ATP (2000-3000 Ci/mmol). 70 μL of the kinase reaction mixture was dispensed into the well of a streptavidin coated FlashPlate™ (Cat. # SMP103, NEN, Boston, Mass.).
(§2) Test compound stock in 100% DMSO (1 μL) was added to the wells resulting in a final concentration of 1% DMSO in the reaction with a 100 μL final reaction volume. Each enzyme was diluted in 50 mM Tris-HCl pH=8.0, 0.1% BSA and 30 μL was added to each well to initiate the reaction. The reaction was incubated for one hour at 30° C. At the end of the 1 hr incubation, the reaction was terminated by aspirating the mixture from the plate and washing the wells twice with PBS containing 100 mM EDTA. The biotinylated peptide substrate became immobilized on the Flashplate™ and the incorporation of ^33P-γ-ATP was measured by reading the plate on a scintillation counter. Inhibition of the enzymatic activity was measured by observing a reduced amount of ^33P-γ-ATP incorporated into the immobilized peptide.
The CDK1 enzyme was isolated from insect cells expressing both the human CDK1 catalytic subunit (Accession number NM_001786) and its positive regulatory subunit cyclin B (New England Biolabs, Beverly, Mass.; Cat. #6020). The assay used 30 ng of the N-terminal biotinylated peptide biotin-[…]-amide (Cyclin dependent kinase 1) per well.
(§3) A maximum and minimum signal for the assay was determined on each plate. The percent inhibition of a test compound was calculated according to the formula: […]
For a series of test concentrations, the IC50 was derived by graphing percent inhibition against the log of the concentrations tested for a given compound with results shown in Table 1.

[2] = target: T2, rat VEGF-R2 kinase domain (polyhistidine fusion, amino acids 786 to 1343) (Rattus norvegicus, UniProt O08775); assay: VEGFR2 screening assay (33P-ATP FlashPlate); assay type: biochemical; settings: 10 μM ATP, 1 hr at 30° C.
T2 construct: amino acids 786 to 1343 of the rat VEGF-R2 kinase domain; polyhistidine (N)
T2 sequence (O08775 786-1343): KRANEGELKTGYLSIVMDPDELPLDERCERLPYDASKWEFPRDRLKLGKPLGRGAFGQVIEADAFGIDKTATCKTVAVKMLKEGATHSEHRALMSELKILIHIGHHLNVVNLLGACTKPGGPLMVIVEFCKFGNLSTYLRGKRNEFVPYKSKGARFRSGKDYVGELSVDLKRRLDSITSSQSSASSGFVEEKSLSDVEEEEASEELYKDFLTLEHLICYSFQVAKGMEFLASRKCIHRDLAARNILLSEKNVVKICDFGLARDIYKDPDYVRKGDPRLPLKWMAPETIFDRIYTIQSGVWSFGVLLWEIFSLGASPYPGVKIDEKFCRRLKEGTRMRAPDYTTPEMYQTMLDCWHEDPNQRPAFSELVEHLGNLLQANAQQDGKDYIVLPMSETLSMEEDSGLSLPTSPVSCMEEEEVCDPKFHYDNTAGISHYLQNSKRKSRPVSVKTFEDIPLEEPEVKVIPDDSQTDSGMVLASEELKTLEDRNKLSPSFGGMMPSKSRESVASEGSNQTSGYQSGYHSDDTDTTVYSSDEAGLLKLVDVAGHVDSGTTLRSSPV
Protocol: (§4) 70 μL of the kinase reaction mixture was dispensed into the well of a streptavidin coated FlashPlate™ (Cat. # SMP103, NEN, Boston, Mass.).
as §2
The assay used 150 ng of the N-terminal biotinylated peptide biotin-[…]-amide (VEGF-R2) per well.
as §3

[3] = target: T3, HER2 (GST/HIS6 fusion, amino acids 679 to 1255 of HER-2) (Homo sapiens, UniProt P04626); assay: HER2 screening assay (33P-ATP FlashPlate); assay type: biochemical; settings: 10 μM ATP, 1 hr at 30° C.
T3 construct: GST (Glutathione-S-Transferase) (N); HIS6 (N); thrombin cleavage site (N); purchased Proqinase, Freiburg, Germany
T3 sequence (P04626 679-1255): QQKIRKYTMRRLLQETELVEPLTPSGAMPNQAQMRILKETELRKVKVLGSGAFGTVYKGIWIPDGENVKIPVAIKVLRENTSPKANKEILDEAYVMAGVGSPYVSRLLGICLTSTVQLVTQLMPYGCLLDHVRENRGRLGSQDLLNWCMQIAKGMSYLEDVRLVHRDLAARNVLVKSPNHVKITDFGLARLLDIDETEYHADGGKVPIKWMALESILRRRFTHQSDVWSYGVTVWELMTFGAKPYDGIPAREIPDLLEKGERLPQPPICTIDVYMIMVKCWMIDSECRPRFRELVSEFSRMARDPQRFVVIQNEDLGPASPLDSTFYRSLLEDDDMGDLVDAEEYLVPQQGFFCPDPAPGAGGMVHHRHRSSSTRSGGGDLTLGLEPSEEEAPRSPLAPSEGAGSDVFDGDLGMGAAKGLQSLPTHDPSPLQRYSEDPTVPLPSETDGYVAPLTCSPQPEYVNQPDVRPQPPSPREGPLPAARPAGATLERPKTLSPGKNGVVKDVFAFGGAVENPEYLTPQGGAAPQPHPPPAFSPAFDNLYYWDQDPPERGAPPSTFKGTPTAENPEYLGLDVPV
Protocol: as §1, §2
The HER2 construct consisted of a fusion of GST (Glutathione-S-Transferase), HIS6 Thrombin and the nucleotides encoding amino acids 679 to 1255 of HER-2 (Accession number M11730) (Proqinase, Freiburg, Germany). The assay used 200 ng of the N-terminal biotinylated peptide biotin-poly(GT) 4:1 (HER2) per well.
as §3

HCT-116 colon carcinoma = assay: Cell proliferation inhibition assay (14C-thymidine incorporation), HCT-116; assay type: cell-based; settings: Homo sapiens, HCT-116 cells
Text: (§5) The ability of a test compound to inhibit unregulated cell proliferation may be determined by measuring incorporation of ^14C-labelled thymidine into newly synthesized DNA within cell lines derived from carcinomas originating from several tissues. Accordingly, the anti-proliferative effect of a compound on cells with a variety of phenotypes may be determined.
(§6) Carcinoma cell lines include those such as HeLa cervical adenocarcinoma (American Type Culture Collection (ATCC), Virginia, Cat. #CCL-2), A375 malignant melanoma (ATCC CRL-1619), and HCT-116 colon carcinoma (CCL-247).
(§7) The carcinoma cells are trypsinized and counted. The cells (3000-8000 count) are added to each well of a 96-well CytoStar tissue culture treated scintillating microplate (Amersham #RPNQ0160) in complete medium (100 μL) and the plate is then incubated in complete medium for 24 hrs at 37° C. in an inert atmosphere containing 5% CO2. Test compound (1 μL) in 100% DMSO is added to the plate test-wells with DMSO only added to control-wells. The plate is incubated in complete medium for a second 24 hr period at 37° C. in an atmosphere containing 5% CO2.
(§8) An aliquot of a solution of Methyl ^14C-thymidine (56 mC/mmol) (NEN #NEC568 or Amersham #CFA532) and complete medium (20 uL to provide 0.2 μCi/well) is then added to each well and the plate is incubated for a third 24 hr period at 37° C. in an atmosphere containing 5% CO2. The plate contents are then discarded, the plate is washed twice with PBS (200 μL) and then PBS (200 μL) is added to each well. The plate is sealed and the degree of methyl ^14C-thymidine incorporation is quantified on a Packard Top Count.
as §3
(§9) For a series of test concentrations, the IC50 was derived by graphing percent inhibition against the log of the concentrations tested for a given compound with results shown in Table 3.

[4] = tested on: HeLa cervical adenocarcinoma; assay: Cell proliferation inhibition assay (14C-thymidine incorporation), HeLa; assay type: cell-based; settings: Homo sapiens, HeLa cells
Text: as §5, §6, §7, §8, §3, §9

[5] = target: T4, murine Aurora-A (polyhistidine fusion, full length) (Mus musculus, UniProt P97477); assay: Aurora-A screening assay (33P-ATP FlashPlate); assay type: biochemical; settings: 10 μM ATP, 1 hr at 30° C.
T4 construct: followed by the full length protein encoding the murine Aurora-A; polyhistidine (N); made in house; host or cells: sf9 insect cells
T4 sequence (P97477 1-395): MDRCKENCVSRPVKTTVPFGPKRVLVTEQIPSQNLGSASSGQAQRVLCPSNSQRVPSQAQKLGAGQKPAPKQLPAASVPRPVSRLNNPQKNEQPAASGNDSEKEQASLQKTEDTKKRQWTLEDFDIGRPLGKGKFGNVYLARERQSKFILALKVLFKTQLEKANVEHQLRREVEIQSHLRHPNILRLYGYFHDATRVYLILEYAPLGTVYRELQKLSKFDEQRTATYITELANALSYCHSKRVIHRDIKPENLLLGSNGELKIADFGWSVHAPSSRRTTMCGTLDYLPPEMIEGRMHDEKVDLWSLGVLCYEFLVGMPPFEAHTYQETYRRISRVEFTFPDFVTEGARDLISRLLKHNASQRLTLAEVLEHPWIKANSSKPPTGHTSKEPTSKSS
Protocol: as §4, §2
Aurora-A is a fusion protein containing a polyhistidine tag at the N terminus followed by the full length protein encoding the murine Aurora-A (Accession number GB BC014711) expressed and purified from sf9 insect cells. The assay used 400 ng of the N-terminal biotinylated peptide biotin-[…]-amide (Aurora-A) per well.
as §3

A375 malignant melanoma = assay: Cell proliferation inhibition assay (14C-thymidine incorporation), A375; assay type: cell-based; settings: Homo sapiens, A-375, A375 cells
Text: as §5, §6, §7, §8, §3, §9

T1 sequence (P06493 whole entry): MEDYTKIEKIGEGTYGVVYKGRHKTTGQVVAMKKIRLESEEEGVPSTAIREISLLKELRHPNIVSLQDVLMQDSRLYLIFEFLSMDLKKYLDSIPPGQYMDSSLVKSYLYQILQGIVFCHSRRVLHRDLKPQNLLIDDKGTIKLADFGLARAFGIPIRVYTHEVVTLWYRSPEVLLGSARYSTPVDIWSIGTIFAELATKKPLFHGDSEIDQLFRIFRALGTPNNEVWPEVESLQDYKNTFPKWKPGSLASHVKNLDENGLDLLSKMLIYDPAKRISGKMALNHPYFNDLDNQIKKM
T1 sequence (P14635 whole entry partner): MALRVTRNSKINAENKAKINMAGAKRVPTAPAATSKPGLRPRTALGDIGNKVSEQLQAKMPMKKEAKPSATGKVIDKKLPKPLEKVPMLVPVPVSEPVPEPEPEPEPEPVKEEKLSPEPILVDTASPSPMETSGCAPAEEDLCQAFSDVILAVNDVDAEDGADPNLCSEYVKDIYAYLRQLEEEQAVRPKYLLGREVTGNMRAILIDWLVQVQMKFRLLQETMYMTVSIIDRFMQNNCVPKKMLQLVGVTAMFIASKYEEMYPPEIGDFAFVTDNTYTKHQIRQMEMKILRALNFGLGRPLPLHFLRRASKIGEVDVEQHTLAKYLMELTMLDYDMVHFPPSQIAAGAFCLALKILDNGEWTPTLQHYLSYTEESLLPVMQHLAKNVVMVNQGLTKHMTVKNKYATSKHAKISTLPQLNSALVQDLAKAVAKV

SMILES	IC50 [1]	IC50 [2]	IC50 [3]	IC50 (HCT-116 colon carcinoma)	IC50 [4]	IC50 [5]	IC50 (A375 malignant melanoma)
FC(F)(F)c1c[nH]c(-c2n[nH]cc2/C=C/c2cccnc2)n1 [Cpd 2, 3-{2-[3-(4-trifluoromethyl-1H-imidazol-2-yl)-1H-pyrazol-4-yl]-vinyl}-pyridine]	0.483 µM	29.4 µM	> 100 µM	23.8 µM	> 10 µM	0.117 µM	46.5 µM
CCNCc1cncc(/C=C/c2c[nH]nc2-c2nc(C(F)(F)F)c[nH]2)c1 [Cpd 1, ethyl-(5-{2-[3-(4-trifluoromethyl-1H-imidazol-2-yl)-1H-pyrazol-4-yl]-vinyl}-pyridin-3-ylmethyl)-amine]	0.018 µM	~10 µM	> 100 µM	1.75 µM	3.18 µM	> 10 µM	7.44 µM
FC(F)(F)c1cnc(-c2n[nH]cc2C=Cc2cncc3ccccc23)[nH]1 [Cpd 4, 4-{2-[3-(4-trifluoromethyl-1H-imidazol-2-yl)-1H-pyrazol-4-yl]-vinyl}-isoquinoline]	0.113 µM	3.06 µM	–	2.92 µM	3.58 µM	0.297 µM	5.59 µM
N#Cc1c[nH]c(-c2n[nH]cc2/C=C/c2cccnc2)n1 [Cpd 3, 2-[4-(2-pyridin-3-yl-vinyl)-1H-pyrazol-3-yl]-1H-imidazole-4-carbonitrile]	0.704 µM	> 10 µM	> 100 µM	70.7 µM	> 10 µM	> 10 µM	> 10 µM
